Data on four compounds can be found in US20100240069A1, “Drug Discovery Assay for Modulators of HIF-Prolyl Hydroxylase Activity” (Boehringer Ingelheim International GmbH, priority 2009, published 2010).

Molecules are shown by their SMILES. Read-outs that look alike come from different tables or passages of the source.

The target in one assay is rhesus HPH1 (Macaca mulatta, UniProt H9FPE3, INS27EP). Nature of the assay: biochemical. The method, then:
(§1) More specifically, the HPH enzyme assay is conducted in a multi-well plate format. In a suitable buffer, a peptide substrate for the HPH, and a substrate for a protein-based pull down assay, and HPH enzyme are incubated for a period of time and at a temperature sufficient to allow the hydroxylation of the proline-containing substrate to occur. After the incubation period (e.g., 45 min.) the reaction is quenched by the addition of a solution containing the detection reagents. In specific embodiments, the solution comprises EDTA (2.5 mM) and the detection reagents (GST-VBC, Streptavidin-allophycocyanin and Europium-labeled anti-GST Antibody). The detection method in this assay is time-resolved fluorescent assay in which the time-resolved fluorescent signal (excitation at 330 nm; emission at 620 and 665 nm) is read on a plate reader after […] of incubation. The ratio of signal at 665 nm to 620 nm is used to calculate the amount of peptide interaction with GST-VBC as a measure of protein hydroxylation.
(§2) In an exemplary assay, the assay is conducted in a 96 or 384-well plate format. In the 384-well scale, the reaction (10 μl) contains buffer (20 mM MOPS (pH 6.5), 1.5 mM magnesium chloride, 5 mM potassium chloride, 0.1% bovine serum albumin, 1 mM TCEP, 10 μM ferrous ammonium sulfate, and 2 mM sodium ascorbate), substrate (2 μM α-ketoglutarate and 60 nM HIF-1αs peptide (biotin-[…]), enzyme (e.g. 8 nM of HPH3), and an inhibitor from a DMSO solution (1% DMSO final in the assay). After 45 min, the reaction is quenched by the addition of EDTA (2.5 mM) and the detection reagents (GST-VBC, Streptavidin-allophycocyanin and Europium-labeled anti-GST Antibody). The time-resolved fluorescent signal (excitation at 330 nm; emission at 620 and 665 nm) is read on a plate reader after 1 h of incubation. The ratio of signal at 665 nm to 620 nm is used to calculate the amount of peptide interaction with GST-VBC as a measure of protein hydroxylation.
(§3) In the assay, the biotinylated substrate is captured by the Streptavidin which is attached to allophycocyanin. The VBC interacts with the substrate and the interaction is recognized through the aid of an anti GST antibody which is labeled with europium. […] The time-resolved fluorescent signal (excitation at 330 nm; emission at 620 and 665 nm) is read on a plate reader after 1 h of incubation. The ratio of signal at 665 nm to 620 nm is used to calculate the amount of peptide interaction with GST-VBC as a measure of protein hydroxylation.
(§4) The VBC protein complex was generated by co-expression of Glutathione S-Transferase-VHL (von Hippel Lindau), elongin B and elongin C in Escherichia coli followed by purification of the complex using glutathione affinity resin and size-exclusion chromatography.

The next assay addresses rhesus HPH2 (Macaca mulatta, UniProt I2CX88). Nature of the assay: biochemical. As for the experimental part:
as §1, §2, §3, §4

In the next assay the target is T1, rhesus HPH3 (Macaca mulatta, UniProt H9FPE4).
T1 construct: fused on or other part: GST tag, N- or C-terminal, for purification
Nature of the assay: TR-FRET HPH enzyme assay (VBC recognition of hydroxylated peptide), HPH3. The settings on record: recombinant rhesus HPH3, inhibitory activity. In kind it is biochemical, rhesus monkey (Macaca mulatta). A general note: Time-resolved FRET reads energy transfer from a long-lived donor to a nearby acceptor.

The subject of assay [1] is recombinant rhesus HPH protein. The experiment in a line: Effect of additives on activity of recombinant rhesus HPH enzyme. Type of assay: biochemical, rhesus monkey (Macaca mulatta).

Sequence of rhesus HPH2 (I2CX88 1-426): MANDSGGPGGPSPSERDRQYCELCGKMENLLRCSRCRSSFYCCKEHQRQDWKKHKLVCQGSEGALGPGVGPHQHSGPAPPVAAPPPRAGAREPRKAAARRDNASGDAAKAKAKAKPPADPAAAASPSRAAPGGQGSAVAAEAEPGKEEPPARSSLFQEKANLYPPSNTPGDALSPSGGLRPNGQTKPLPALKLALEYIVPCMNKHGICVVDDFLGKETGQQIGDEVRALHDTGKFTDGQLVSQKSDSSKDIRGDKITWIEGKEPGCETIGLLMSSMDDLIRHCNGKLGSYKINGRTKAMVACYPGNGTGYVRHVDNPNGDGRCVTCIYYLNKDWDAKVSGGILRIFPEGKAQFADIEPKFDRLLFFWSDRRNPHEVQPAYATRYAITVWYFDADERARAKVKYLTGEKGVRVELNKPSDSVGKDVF
Sequence of rhesus HPH1 (H9FPE3 1-405, stated change not applied): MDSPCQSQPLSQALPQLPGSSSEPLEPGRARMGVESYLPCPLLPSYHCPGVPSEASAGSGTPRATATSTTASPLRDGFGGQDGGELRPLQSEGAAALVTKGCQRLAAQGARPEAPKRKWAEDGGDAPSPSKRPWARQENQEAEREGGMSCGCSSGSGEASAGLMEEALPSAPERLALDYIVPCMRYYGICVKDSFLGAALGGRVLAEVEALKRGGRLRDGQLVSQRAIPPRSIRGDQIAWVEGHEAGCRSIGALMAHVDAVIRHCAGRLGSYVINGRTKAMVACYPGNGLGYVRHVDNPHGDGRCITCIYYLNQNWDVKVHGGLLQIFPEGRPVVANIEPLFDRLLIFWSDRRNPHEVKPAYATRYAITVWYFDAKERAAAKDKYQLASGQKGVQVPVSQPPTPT
Method for rhesus HPH3: More specifically, the HPH enzyme assay is conducted in a multi-well plate format. In a suitable buffer, a peptide substrate for the HPH, and a substrate for a protein-based pull down assay, and HPH enzyme are incubated for a period of time and at a temperature sufficient to allow the hydroxylation of the proline-containing substrate to occur. After the incubation period (e.g., 45 min.) the reaction is quenched by the addition of a solution containing the detection reagents. In specific embodiments, the solution comprises EDTA (2.5 mM) and the detection reagents (GST-VBC, Streptavidin-allophycocyanin and Europium-labeled anti-GST Antibody). The detection method in this assay is time-resolved fluorescent assay in which the time-resolved fluorescent signal (excitation at 330 nm; emission at 620 and 665 nm) is read on a plate reader after 1 of incubation. The ratio of signal at 665 nm to 620 nm is used to calculate the amount of peptide interaction with GST-VBC as a measure of protein hydroxylation.
In an exemplary assay, the assay is conducted in a 96 or 384-well plate format. […]
In the assay, the biotinylated substrate is captured by the Streptavidin which is attached to allophycocyanin. […] The time-resolved fluorescent signal (excitation at 330 nm; emission at 620 and 665 nm) is read on a plate reader after 1 h of incubation. […]

Consider `NNc1nncc2ccccc12` [Hydralazine], for which the figures for the IC50 against rhesus HPH1 and against rhesus HPH2 were 400 µM and 320 µM, respectively.
For the compound `O=C(O)CCC(=O)O` [Succinate], the half-inhibitory concentration (IC50) (in general, the concentration that inhibits the measured activity by half) at rhesus HPH1 (read-out: IC50 HPH1, recombinant rhesus HPH1, inhibitory activity) was 200 µM; on rhesus HPH2 (read-out: IC50 HPH2, recombinant rhesus HPH2, inhibitory activity), 380 µM; on rhesus HPH3 it was 80 µM.
Turning to `[Fe+2]` [ferrous iron], the “effect on enzyme activity” value in assay [1] (addition to recombinant rhesus HPH enzyme, isoform not stated) is “increased the activity of the enzyme”.
Regarding `[Cl-].[Cl-].[Co+2]` [CoCl2], the “effect on enzyme activity” value in assay [1] was “inhibited enzyme activity”.
